From US7439418B2, “Anti-microbial peptide known as halocyntin, gene coding for said peptide, vector, transformed organism and composition containing said peptide” (Centre National de la Recherche Scientifique - CNRS, priority 2003, dated 2008)
Where no end group is shown, it is not given here.

Legend:
Format in all cases: cell-based
A. viridans = assay: Minimal bactericidal concentration (MBC); settings: Mueller Hinton, 18 hours of incubation
Experimental: (§1) The minimal bactericidal concentration (MBC) for each bacterial strain tested was determined as follows: The peptide was placed in a solution containing 0.01% acetic acid and 0.2% bovine serum albumin (BSA), then, serial dilutions of 2 in 2 are realized in the same 0.01% solution of acetic acid and 0.2% BSA. 10 μl of each dilution are incubated in sterile 96-well plates (Becton Dickinson, USA, ref: 18572) in the presence of 100 μl of a bacterial suspension brought to an optical density of 0.001 at 600 nm in the Mueller Hinton environment (MHB, SIGMA, ref: M-9677).
(§2) The bacterial growth is monitored after 18 hours of incubation under agitation. The MBC is determined by spreading out the content of the first three wells in which no bacterial growth was observed. This spreading out was carried out on Petri dishes on which an agar was poured prepared from the Mueller Hinton environment. These dishes were then incubated 18 hours. The MBC corresponds to the lowest concentration of peptide for which no bacterial colony was observed on the incubated dishes.

B. megaterium = assay: Minimal bactericidal concentration (MBC); settings: Mueller Hinton, 18 hours of incubation
Experimental: as §1, §2

E. aerogenes = assay: Minimal bactericidal concentration (MBC); settings: Mueller Hinton, 18 hours of incubation
Experimental: as §1, §2

E. coli DH5α = assay: Minimal bactericidal concentration (MBC); settings: Mueller Hinton, 18 hours of incubation
Experimental: as §1, §2

E. faecalis = assay: Minimal bactericidal concentration (MBC); settings: Mueller Hinton, 18 hours of incubation
Experimental: as §1, §2

K. pneumoniae = assay: Minimal bactericidal concentration (MBC); settings: Mueller Hinton, 18 hours of incubation
Experimental: as §1, §2

M. luteus = assay: Minimal bactericidal concentration (MBC); settings: Mueller Hinton, 18 hours of incubation
Experimental: as §1, §2

N. gonorrhoeae = assay: Minimal bactericidal concentration (MBC); settings: Mueller Hinton, 18 hours of incubation
Experimental: as §1, §2

P. aeruginosa = assay: Minimal bactericidal concentration (MBC); settings: Mueller Hinton, 18 hours of incubation
Experimental: as §1, §2

S. aureus = assay: Minimal bactericidal concentration (MBC); settings: Mueller Hinton, 18 hours of incubation
Experimental: as §1, §2

S. typhimutium = assay: Minimal bactericidal concentration (MBC); settings: Mueller Hinton, 18 hours of incubation
Experimental: as §1, §2

sheep erythrocytes = assay: Hemolytic activity on sheep erythrocytes
Experimental: A known quantity of peptide was placed in a solution containing […] acetic acid and 0.2% bovine serum albumin (BSA) in such a manner as to obtain a stock solution with a concentration of […]; then, serial dilutions of this solution were realized in the same solution of 0.01% acetic acid and 0.2% BSA (AA-BSA). […] of each of these solutions or […] of a 10% Triton X-100 solution in PBS (control—peptide) were then added to 180 μl of a solution containing 2.5% (volume/volume) of the suspension of sheep erythrocytes in PBS. The mixture was then incubated 30 minutes at 37° C. then submitted to a centrifugation that 10000 g for 3 minutes. Finally, the supernatant was recovered and its absorbance measured at 600 nm. The percentage of hemolysis is then calculated with the following equation: % hemolysis=(A600 of the sample−A600 of control-peptide)/(A600 control 100% hemolysis−A600 control-peptide)×100.

In the case of FWGHIWNAVKRVGANALHGAVTGALS [halocyntin], the MBC (A. viridans) was 3.13 to 6.25 µM, the MBC (B. megaterium) was 0.75 to 1.56 µM and the MBC (E. aerogenes) was 25 to 50 µM. It also gave an MBC (E. coli DH5α) of 6.25 to 12.5 µM, an MBC (E. faecalis) of 6.25 to 12.5 µM and an MBC (K. pneumoniae) of 12.5 to 25 µM. For the same sequence, the MBC (M. luteus) was 1.56 to 3.13 µM, the MBC (N. gonorrhoeae) was 25 to 50 µM and the MBC (P. aeruginosa) was over 100 µM. The MBC (S. aureus) was 6.25 to 12.5 µM, the MBC (S. typhimutium) was 50 to 100 µM and the hemolytic activity (sheep erythrocytes; beyond 12.5 mM) was “very faint hemolytic activity”. The hemolytic activity (sheep erythrocytes; concentration of 50 μM, 30 minutes at 37° C.) was 5.8% and the hemolytic activity (sheep erythrocytes; up to concentrations of 12.5 mM) was “does not show any hemolytic activity”.
